# Molecular target: T1, GST-Plk1 (Homo sapiens, UniProt P53350)
# T1 construct: Full-length, active GST-Plk1 was purified from Sf9 insect cells; made in house; host or cells: Sf9 insect cells
# Assay: Biochemical Characterization Assay: HTRF kinase assay, GST-Plk1 phosphorylation of GST-p53
# Conditions: full-length active GST-Plk1, GST-p53 substrate, ATP, 37° C. for 35 minutes, HTRF signal
# Description: Full-length, active GST-Plk1 was purified from Sf9 insect cells, and full-length GST-p53 was purified in E. coli. Anti-phospho p53 antibody was purchased from Cell Signaling Technology. Europium-conjugated anti-rabbit antibody was purchased from PerkinElmer Life and Analytical Sciences. APC-conjugated anti-GST antibody was purchased from Prozyme.
# To two microliters of compound (0.6 nM-4 mM) in DMSO or plain DMSO for control wells, 38 microliters of 20 mM HEPES pH 7, 50 mM NaCl, 10 mM MgCl2, 0.5 mM TCEP, 0.1 mM sodium orthovanadate, 0.1 mg/ml BSA, and 0.05% Triton X-100 (Kinase Assay Buffer) were added. Eight microliters of the compound solution were added to a 384-well black microtiter plate, followed by six microliters of GST-p53 (17 ug/ml) and ATP (333 uM) in Kinase Assay Buffer. Six microliters of GST-Plk1 (3 ug/ml) in Kinase Assay Buffer were then added and the solution incubated at 37° C. for 35 minutes. Six microliters of solution containing 43 mM EDTA to stop the reaction and a 1:600 dilution of anti-phospho-p53 antibody in 20 mM HEPES pH 7, 50 mM NaCl, and 0.5 mg/ml BSA (Antibody Binding Buffer) were added and the solution incubated at 37° C. for 30 minutes. Six microliters of solution containing 9 nM europium-conjugated anti-rabbit antibody and 120 nM APC-conjugated anti-GST antibody in Antibody Binding Buffer were then added and the mixture incubated at room temperature for 1.5 hours. The HTRF signal was read on the Envision reader (PerkinElmer Life and Analytical Sciences).
# T1 sequence (P53350 whole entry): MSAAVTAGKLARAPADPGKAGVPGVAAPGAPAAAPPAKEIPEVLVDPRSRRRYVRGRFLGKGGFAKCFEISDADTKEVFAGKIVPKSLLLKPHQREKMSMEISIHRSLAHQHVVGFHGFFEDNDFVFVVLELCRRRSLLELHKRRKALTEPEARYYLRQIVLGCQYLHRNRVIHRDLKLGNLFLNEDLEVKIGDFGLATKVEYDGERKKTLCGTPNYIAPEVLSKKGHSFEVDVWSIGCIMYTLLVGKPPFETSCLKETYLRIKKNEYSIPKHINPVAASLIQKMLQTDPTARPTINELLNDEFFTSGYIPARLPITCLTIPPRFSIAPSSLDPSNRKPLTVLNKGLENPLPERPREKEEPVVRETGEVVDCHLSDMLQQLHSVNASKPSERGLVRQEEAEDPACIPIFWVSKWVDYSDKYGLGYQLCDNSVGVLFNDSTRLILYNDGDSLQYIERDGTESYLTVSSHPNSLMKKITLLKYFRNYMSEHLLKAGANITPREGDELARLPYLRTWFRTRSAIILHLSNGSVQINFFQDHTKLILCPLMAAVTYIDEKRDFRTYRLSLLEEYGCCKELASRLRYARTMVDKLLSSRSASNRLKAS
row,Molecule,IC50
1,2-(5-Chlorobenzoimidazol-1-yl)-4-phenylthiazole-5-carboxylic acid and 2-(6-chlorobenzoimidazol-1-yl)-4-phenylthiazole-5-carboxylic acid [Example 14],720 nM
2,"COc1cc2ncn(-c3nc(-c4ccccc4C)c(C(=O)O)s3)c2cc1OC [Example 27, 2-(5,6-Dimethoxy-benzoimidazol-1-yl)-4-o-tolyl-thiazole-5-carboxylic acid]",1620 nM
3,"COc1cc2ncn(-c3nc(-c4ccc5c(c4)OCO5)c(C(=O)O)s3)c2cc1OC [Example 22, 4-Benzo[1,3]dioxol-5-yl-2-(5,6-dimethoxy-benzoimidazol-1-yl)-thiazole-5-carboxylic acid]",125 nM
4,2-(5-Chloro-6-methylbenzoimidazol-1-yl)-4-phenylthiazole-5-carboxylic acid and 2-(6-chloro-5-methylbenzoimidazol-1-yl)-4-phenylthiazole-5-carboxylic acid [Example 16],1170 nM
5,"COc1cc2ncn(-c3nc(-c4cccc(F)c4)c(C(=O)O)s3)c2cc1OC [Example 17, 2-(5,6-Dimethoxy-benzoimidazol-1-yl)-4-(3-fluoro-phenyl)-thiazole-5-carboxylic acid]",69 nM
6,2-(4-Hydroxy-benzoimidazol-1-yl)-4-phenyl-thiazole-5-carboxylic acid and 2-(7-hydroxy-benzoimidazol-1-yl)-4-phenyl-thiazole-5-carboxylic acid [Example 7],7470 nM
7,"COc1cc2ncn(-c3nc(-c4ccccc4)c(C(=O)NC4CC4)s3)c2cc1OC [Example 13, 2-(5,6-Dimethoxy-benzoimidazol-1-yl)-4-phenyl-thiazole-5-carboxylic acid cyclopropylamide]",3310 nM
8,1-(5-Carboxy-4-phenyl-thiazol-2-yl)-1H-benzoimidazole-4-carboxylic acid and 3-(5-carboxy-4-phenyl-thiazol-2-yl)-3H-benzoimidazole-4-carboxylic acid [Example 8],6420 nM
9,"COc1cc2ncn(-c3nc(-c4ccccc4Cl)c(C(=O)O)s3)c2cc1OC [Example 21, 4-(2-Chloro-phenyl)-2-(5,6-dimethoxy-benzoimidazol-1-yl)-thiazole-5-carboxylic acid]",3600 nM
10,"COc1cc2ncn(-c3nc(-c4ccccc4)c(C(=O)N(C)C)s3)c2cc1OC [Example 10, 2-(5,6-Dimethoxy-benzoimidazol-1-yl)-4-phenyl-thiazole-5-carboxylic acid dimethylamide]",1380 nM
11,"COc1cc2ncn(-c3nc(-c4ccc(F)c(Cl)c4)c(C(=O)O)s3)c2cc1OC [Example 19, 4-(3-Chloro-4-fluoro-phenyl)-2-(5,6-dimethoxy-benzoimidazol-1-yl)-thiazole-5-carboxylic acid]",87 nM
12,"COc1cc2ncn(-c3nc(-c4ccsc4)c(C(=O)O)s3)c2cc1OC [Example 25, 2-(5,6-Dimethoxy-benzoimidazol-1-yl)-4-thiophen-3-yl-thiazole-5-carboxylic acid]",781 nM
13,2-(5-Methoxy-benzoimidazol-1-yl)-4-phe-nyl-thiazole-5-car-boxylic acid; compoundwith 2-(6-methoxy-benzoimidazol-1-yl)-4-phenyl-thiazole-5-carboxylic acid [Example 15],226 nM
14,"COc1cc2ncn(-c3nc(-c4cccc(F)c4F)c(C(=O)O)s3)c2cc1OC [Example 29, 4-(2,3-Difluoro-phenyl)-2-(5,6-dimethoxy-benzoimidazol-1-yl)-thiazole-5-carboxylic acid]",538 nM
15,"COc1cc2ncn(-c3nc(-c4cccc(C(C)C)c4)c(C(=O)O)s3)c2cc1OC [Example 24, 2-(5,6-Dimethoxy-benzoimidazol-1-yl)-4-(3-isopropyl-phenyl)-thiazole-5-carboxylic acid]",68 nM
16,"CCNC(=O)c1sc(-n2cnc3cc(OC)c(OC)cc32)nc1-c1ccccc1 [Example 11, 2-(5,6-Dimethoxy-benzoimidazol-1-yl)-4-phenyl-thiazole-5-carboxylic acid ethylamide]",916 nM
17,"COc1cc2ncn(-c3nc(-c4ccccc4)c(C(=O)O)s3)c2cc1OC [Example 1, 2-(5,6-Dimethoxybenzoimidazol-1-yl)-4-phenylthiazole-5-carboxylic acid]",107 nM
18,"COc1cc2ncn(-c3nc(-c4cccc(Cl)c4)c(C(=O)O)s3)c2cc1OC [Example 31, 4-(3-Chloro-phenyl)-2-(5,6-dimethoxy-benzoimidazol-1-yl)-thiazole-5-carboxylic acid]",25 nM
19,"COc1cc2ncn(-c3nc(-c4ccccc4)c(-c4nnn[nH]4)s3)c2cc1OC [Example 12, 5,6-Dimethoxy-1-[4-phenyl-5-(1H-tetrazol-5-yl)-thiazol-2-yl]-1H-benzoimidazole]",1100 nM

# The next lines start with the values.
row,IC50,Molecule
1,252 nM,"COc1cc2ncn(-c3nc(-c4cccc(Cl)c4)c(C(=O)Nc4nccs4)s3)c2cc1OC [Example 56, 4-(3-Chloro-phenyl)-2-(5,6-dimethoxy-benzoimidazol-1-yl)-thiazole-5-carboxylic acid thiazol-2-ylamide]"
2,2620 nM,"2-(8H-5,7-Dioxa-1,3-diaza-cyclopenta[b]naphthalen-3-yl)-4-phenyl-thiazole-5-carboxylic acid and 2-(8H-5,7-Dioxa-1,3-diaza-cyclopenta[b]naphthalen-1-yl)-4-phenyl-thiazole-5-carboxylic acid [Example 9]"
3,2340 nM,"COc1cc2ncn(-c3nc(-c4ccc5c(c4)OCCO5)c(C(=O)O)s3)c2cc1OC [Example 50, 4-(2,3-Dihydro-benzo[1,4]dioxin-6-yl)-2-(5,6-dimethoxy-benzoimidazol-1-yl)-thiazole-5-carboxylic acid]"
4,431 nM,"COc1cc2ncn(-c3nc(-c4cccc(Cl)c4)c(C(N)=O)s3)c2cc1OC [Example 36, 4-(3-Chloro-phenyl)-2-(5,6-dimethoxy-benzoimidazol-1-yl)-thiazole-5-carboxylic acid amide]"
5,606 nM,"COc1cc2ncn(-c3nc(-c4ccccc4)c(C(=O)Nc4ccccc4)s3)c2cc1OC [Example 38, 2-(5,6-Dimethoxy-benzoimidazol-1-yl)-4-phenyl-thiazole-5-carboxylic acid phenylamide]"
6,826 nM,2-(5-Methoxy-6-methylbenzoimidazol-1-yl)-4-phenylthiazole-5-carboxylic acid and 2-(6-methoxy-5-methylbenzoimidazol-1-yl)-4-phenylthiazole-5-carboxylic acid [Example 59]
7,819 nM,"COCCOc1cc2ncn(-c3nc(-c4ccccc4)c(C(=O)O)s3)c2cc1OCCOC [Example 48, 2-[5,6-Bis-(2-methoxy-ethoxy)-benzoimidazol-1-yl]-4-phenyl-thiazole-5-carboxylic acid]"
8,368 nM,"COc1cc2ncn(-c3nc(-c4ccc5c(ccn5C)c4)c(C(=O)O)s3)c2cc1OC [Example 46, 2-(5,6-Dimethoxy-benzoimidazol-1-yl)-4-(1-methyl-1H-indol-5-yl)-thiazole-5-carboxylic acid]"
9,40 nM,"COc1cc2ncn(-c3nc(-c4cccc(Br)c4)c(C(=O)O)s3)c2cc1OC [Example 42, 4-(3-Bromo-phenyl)-2-(5,6-dimethoxy-benzoimidazol-1-yl)-thiazole-5-carboxylic acid]"
10,4430 nM,"COc1cc2ncn(-c3nc(-c4cccc(Cl)c4)c(C(=O)Nc4cc[nH]c(=O)n4)s3)c2cc1OC [Example 60, 4-(3-Chloro-phenyl)-2-(5,6-dimethoxy-benzoimidazol-1-yl)-thiazole-5-carboxylic acid (2-oxo-1,2-dihydro-pyrimidin-4-yl)-amide]"
11,18 nM,"COc1cc2ncn(-c3nc(-c4cccc(Cl)c4)c(C(=O)NNC(=O)c4cccs4)s3)c2cc1OC [Example 53, Thiophene-2-carboxylic acid N′-[4-(3-chloro-phenyl)-2-(5,6-dimethoxybenzoimidazol-1-yl)-thiazole-5-carbonyl]-hydrazide]"
12,75 nM,"COc1cc2ncn(-c3nc(-c4ccnc(Cl)c4)c(C(=O)O)s3)c2cc1OC [Example 64, 4-(2-Chloro-pyridin-4-yl)-2-(5,6-dimethoxy-benzoimidazol-1-yl)-thiazole-5-carboxylic acid]"
13,4680 nM,"O=C(O)c1sc(-n2cnc3cccc(O)c32)nc1-c1ccccc1 [Example 61, 2-(7-Hydroxy-benzoimidazol-1-yl)-4-phenyl-thiazole-5-carboxylic acid]"
14,157 nM,"COc1cc2ncn(-c3nc(-c4cccc(C(F)(F)F)c4)c(C(=O)O)s3)c2cc1OC [Example 43, 2-(5,6-Dimethoxy-benzoimidazol-1-yl)-4-(3-trifluoromethyl-phenyl)-thiazole-5-carboxylic acid]"
15,354 nM,"COc1cc2ncn(-c3nc(-c4ccc(C(F)(F)F)c(Cl)c4)c(C(=O)O)s3)c2cc1OC [Example 45, 4-(3-Chloro-4-trifluoromethyl-phenyl)-2-(5,6-dimethoxy-benzoimidazol-1-yl)-thiazole-5-carboxylic acid]"

# From US7504513B2, “Thiazolyl-benzimidazoles” (Hoffman-La Roche Inc., priority 2006, dated 2009)
